Results published in article PMC10939060 (Bioorganic & medicinal chemistry letters, 2022).
Marks after values point to notes of the source that are not given here.

What was measured:
In vitro clearance [1] = assay type: in vitro ADME, human; conditions: for Predicted CLhep: human (h)
In vitro clearance [2] = assay type: in vitro ADME, rat; conditions: for Predicted CLhep: rat (r)
hM5 = biological target: T1, hM5 (Homo sapiens, UniProt P08912); test: Calcium mobilization assay with hM5-CHO cells, EC80 acetylcholine; assay type: cell-based; conditions: for hM5 IC50: antagonist
T1 sequence (P08912 1-532): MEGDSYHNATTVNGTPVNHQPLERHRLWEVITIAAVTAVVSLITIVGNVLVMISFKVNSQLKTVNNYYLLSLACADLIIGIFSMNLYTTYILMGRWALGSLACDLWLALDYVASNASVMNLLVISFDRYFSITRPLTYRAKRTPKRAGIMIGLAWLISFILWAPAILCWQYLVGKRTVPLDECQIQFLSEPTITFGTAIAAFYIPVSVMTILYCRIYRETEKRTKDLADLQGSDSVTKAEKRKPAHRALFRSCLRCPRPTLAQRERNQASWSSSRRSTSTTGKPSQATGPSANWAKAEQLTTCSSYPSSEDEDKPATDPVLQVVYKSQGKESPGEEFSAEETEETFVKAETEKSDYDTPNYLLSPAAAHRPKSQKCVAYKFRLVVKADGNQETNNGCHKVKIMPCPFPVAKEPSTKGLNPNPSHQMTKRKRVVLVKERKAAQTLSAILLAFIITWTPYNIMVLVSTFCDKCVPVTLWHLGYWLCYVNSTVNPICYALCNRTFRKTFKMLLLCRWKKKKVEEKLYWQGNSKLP

hM2 = biological target: T2, hM2 (Homo sapiens, UniProt P08172); test: Subtype selectivity, hM2; assay type: cell-based; conditions: printed as hM2-4
T2 sequence (P08172 1-466): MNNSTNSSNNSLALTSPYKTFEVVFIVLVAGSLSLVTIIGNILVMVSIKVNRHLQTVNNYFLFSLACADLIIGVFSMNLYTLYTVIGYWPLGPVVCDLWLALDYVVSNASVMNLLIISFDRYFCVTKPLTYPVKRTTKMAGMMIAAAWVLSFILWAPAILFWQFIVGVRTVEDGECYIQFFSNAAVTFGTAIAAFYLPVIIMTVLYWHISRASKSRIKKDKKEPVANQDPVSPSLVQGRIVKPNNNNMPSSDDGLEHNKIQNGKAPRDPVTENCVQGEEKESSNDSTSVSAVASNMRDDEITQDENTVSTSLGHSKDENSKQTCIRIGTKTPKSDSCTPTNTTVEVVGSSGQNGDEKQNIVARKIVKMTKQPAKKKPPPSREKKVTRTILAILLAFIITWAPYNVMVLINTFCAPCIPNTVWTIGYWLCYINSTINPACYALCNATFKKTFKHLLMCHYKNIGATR

hM3 = hM3 (Homo sapiens, UniProt P20309); test: Subtype selectivity, hM3; assay type: cell-based; conditions: printed as hM2-4
hM4 = biological target: T3, hM4 (Homo sapiens, UniProt P08173); test: Subtype selectivity, hM4; assay type: cell-based
T3 sequence (P08173 1-479): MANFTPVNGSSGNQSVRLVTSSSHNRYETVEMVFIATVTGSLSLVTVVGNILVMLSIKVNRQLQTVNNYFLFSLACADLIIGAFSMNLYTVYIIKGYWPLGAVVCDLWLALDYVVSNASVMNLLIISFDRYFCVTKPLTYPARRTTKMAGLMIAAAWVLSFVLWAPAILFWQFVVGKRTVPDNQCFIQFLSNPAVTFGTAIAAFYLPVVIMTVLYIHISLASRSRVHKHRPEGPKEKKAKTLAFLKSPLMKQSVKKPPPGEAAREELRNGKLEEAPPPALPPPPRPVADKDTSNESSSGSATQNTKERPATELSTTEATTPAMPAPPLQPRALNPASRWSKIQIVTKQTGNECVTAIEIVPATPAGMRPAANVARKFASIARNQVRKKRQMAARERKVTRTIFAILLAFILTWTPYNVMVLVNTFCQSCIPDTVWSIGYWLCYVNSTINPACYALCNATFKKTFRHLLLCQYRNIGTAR

Sequence of hM3 (P20309 whole entry): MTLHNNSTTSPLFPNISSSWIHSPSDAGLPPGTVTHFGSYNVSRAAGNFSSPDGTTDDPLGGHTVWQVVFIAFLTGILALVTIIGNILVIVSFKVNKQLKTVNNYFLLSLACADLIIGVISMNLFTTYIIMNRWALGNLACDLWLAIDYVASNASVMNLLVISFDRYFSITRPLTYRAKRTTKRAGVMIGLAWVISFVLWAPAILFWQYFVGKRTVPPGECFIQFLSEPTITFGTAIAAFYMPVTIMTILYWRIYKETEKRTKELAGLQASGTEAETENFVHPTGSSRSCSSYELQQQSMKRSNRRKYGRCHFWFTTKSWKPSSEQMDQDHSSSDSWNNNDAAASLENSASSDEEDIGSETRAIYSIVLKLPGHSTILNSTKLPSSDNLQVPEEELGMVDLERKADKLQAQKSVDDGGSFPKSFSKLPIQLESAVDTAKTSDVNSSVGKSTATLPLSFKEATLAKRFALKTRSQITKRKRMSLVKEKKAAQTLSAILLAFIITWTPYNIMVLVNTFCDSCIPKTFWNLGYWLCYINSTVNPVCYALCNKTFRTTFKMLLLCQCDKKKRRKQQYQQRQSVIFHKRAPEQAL

| Predicted CLhep (In vitro clearance [1]) [mL/min/kg] | Predicted CLhep (In vitro clearance [2]) [mL/min/kg] | hM5 ACh Min (hM5) | Compound | further results |
| --- | --- | --- | --- | --- |
| 19 | 62 | 3^c % | C[C@@H]1CN(S(=O)(=O)c2ccc3c(c2)CCO3)CC[C@@H]1C(=O)Nc1ccc2scnc2c1 (racemic) [(rac)-22] |  |
| 17 | 61 | 3^c % | C[C@H]1CN(S(=O)(=O)c2ccc3c(c2)CCO3)CC[C@@H]1C(=O)Nc1ccc2scnc2c1 (racemic) [(rac)-23] |  |
| 19 | 62 | 2^c % | C[C@@H]1C[C@H](C(=O)Nc2ccc3scnc3c2)CCN1S(=O)(=O)c1ccc2c(c1)CCO2 (racemic) [(rac)-24] |  |
| 18 | 62 |  | C[C@@H]1C[C@@H](C(=O)Nc2ccc3scnc3c2)CCN1S(=O)(=O)c1ccc2c(c1)CCO2 (racemic) [(rac)-25] |  |
| 19 | 66 |  | CC1COc2ccc(S(=O)(=O)N3CCC(C(=O)Nc4ccc5scnc5c4)CC3)cc21 (racemic) [(rac)-26] |  |
| 5 | 55 |  | Cc1nn(C)cc1S(=O)(=O)N1CC[C@H](C(=O)Nc2ccc3scnc3c2)[C@@H](F)C1 (racemic) [(rac)-30a] |  |
| 4 | 29 |  | Cn1ncc(S(=O)(=O)N2CC[C@H](C(=O)Nc3ccc4scnc4c3)[C@@H](F)C2)c1Cl (racemic) [(rac)-30b] |  |
| 5 | 37 |  | Cc1ncc(S(=O)(=O)N2CC[C@H](C(=O)Nc3ccc4scnc4c3)[C@@H](F)C2)s1 (racemic) [(rac)-30c] |  |
|  |  | inactive | O=C(Nc1ccc2occc2c1)C1CCN(S(=O)(=O)c2ccc3c(c2)CCO3)CC1 [28a] | hM5 IC50 (hM5): inactive |
|  |  | inactive | O=C(Nc1ccc2ncnn2c1)C1CCN(S(=O)(=O)c2ccc3c(c2)CCO3)CC1 [28b] | hM5 IC50 (hM5): inactive |
|  |  | inactive | O=C(Nc1ccc2nncn2c1)C1CCN(S(=O)(=O)c2ccc3c(c2)CCO3)CC1 [28c] | hM5 IC50 (hM5): inactive |
|  |  | inactive | O=C(Nc1cnc2sccc2c1)C1CCN(S(=O)(=O)c2ccc3c(c2)CCO3)CC1 [28d] | hM5 IC50 (hM5): inactive |
|  |  | inactive | O=C(Nc1ccc2nccnc2c1)C1CCN(S(=O)(=O)c2ccc3c(c2)CCO3)CC1 [28e] | hM5 IC50 (hM5): inactive |
| 17 | 64 |  | O=C(Nc1ccc2cccnc2c1)C1CCN(S(=O)(=O)c2ccc3c(c2)CCO3)CC1 [28f] |  |
| 18 | 64 |  | O=C(Nc1ccc2snnc2c1)C1CCN(S(=O)(=O)c2ccc3c(c2)CCO3)CC1 [28g] |  |
| 13 | 38 |  | O=C(Nc1ccc2scnc2c1)C1CCN(S(=O)(=O)c2ccc3ncsc3c2)CC1 [29a] | CLint scaled (In vitro clearance [1]; human): 13 mL/min/kg; CLint scaled (In vitro clearance [2]; rat): 38 mL/min/kg |
| 10 | 53 |  | O=C(Nc1ccc2scnc2c1)C1CCN(S(=O)(=O)c2ccc3ncccc3c2)CC1 [29b] |  |
| 11 | 33 | 3^b % | O=C(Nc1ccc2scnc2c1)C1CCN(S(=O)(=O)c2ccc(Cl)nc2)CC1 [29c] |  |
| 4 | 27 |  | Cc1ccc(S(=O)(=O)N2CCC(C(=O)Nc3ccc4scnc4c3)CC2)cn1 [29d] |  |
| 10 | 52 | 2^b % | O=C(Nc1ccc2scnc2c1)C1CCN(S(=O)(=O)c2cccnc2)CC1 [29e] |  |
|  | 28 |  | Cc1nn(C)cc1S(=O)(=O)N1CCC(C(=O)Nc2ccc3scnc3c2)CC1 [29f] |  |
|  |  |  | O=C(Nc1ccc2scnc2c1)C1CCN(S(=O)(=O)c2ccc(Cl)s2)CC1 [compound 4] | hM2 IC50 (hM2): inactive; hM3 IC50 (hM3): inactive; hM4 IC50 (hM4): inactive |
|  |  |  | Cn1ccnc1NC(=O)C1CCN(S(=O)(=O)c2ccc3c(c2)CCO3)CC1 [compound 6] | hM5 IC50 (hM5): inactive |
| 16 | 60 | 19^c % | Cc1nc2cc(NC(=O)C3CCN(S(=O)(=O)c4ccc5c(c4)CCO5)CC3)ccc2s1 [compound 20] |  |
